This is an account of results in patent US7495018B2, “Substituted 1,3-thiazole compounds, their production and use” (Takeda Pharmaceutical Company Limited, priority 2000, dated 2009).

SMILES strings stand for the structures.

For orientation: melting point means the temperature, or range, at which the solid turns liquid. In turn, `CSc1ccc(-c2nc(-c3cccc(C)c3)c(-c3ccnc(C)c3)s2)cc1` [Example Compound 16-1, 4-(3-methylphenyl)-5-(2-methyl-4-pyridyl)-2-[4-(methylthio)phenyl]-1,3-thiazole] came in with a melting point of 119 to 122 °C.
As for `CCc1nc(-c2cccc(C)c2)c(-c2ccnc(NC(=O)OC(C)(C)C)c2)s1` [Example 3, 5-[2-(tert-butoxycarbonylamino)-4-pyridyl]-2-ethyl-4-(3-methylphenyl)-1,3-thiazole], the melting point fell in the range of 162 to 163 °C.
In turn, `Cc1cccc(-c2nc(-c3ccc(S(C)(=O)=O)cc3)sc2-c2ccnc(N3CCOCC3)c2)c1` [Example Compound 36-8, 4-(3-methylphenyl)-2-(4-methylsulfonylphenyl)-5-(2-morpholino-4-pyridyl)-1,3-thiazole] gave a melting point of 200 to 202 °C.
Consider `CCc1nc(-c2cccc(C(F)(F)F)c2)c(-c2ccnc(N)c2)s1` [Example Compound 20-4, 4-[2-ethyl-4-[3-(trifluoromethyl)phenyl]-1,3-thiazol-5-yl]-2-pyridylamine], for which the melting point fell in the range of 117 to 118 °C.
Consider `CCc1nc(-c2cccc(F)c2)c(-c2ccnc(N)c2)s1` [Example Compound 20-6, 4-[2-ethyl-4-(3-fluorophenyl)-1,3-thiazol-5-yl]-2-pyridylamine], for which the melting point lay within 153 to 154 °C.
`Cc1cccc(-c2nc(-c3ccc(S(C)(=O)=O)cc3)sc2N2C=CC=CC2N2CCCCC2)c1` (stereo not shown) [Example Compound 35-2, 4-(3-methylphenyl)-2-(4-methylsulfonylphenyl)-5-(2-piperidino-1-pyridyl)-1,3-thiazole]: the melting point was in the range of 155 to 157 °C.
For `Cc1cccc(-c2nc(-c3ccc(F)cc3)sc2-c2ccnc(N)c2)c1` [Example Compound 18-1, 4-[2-(4-fluorophenyl)-4-(3-methylphenyl)-1,3-thiazol-5-yl]-2-pyridylamine], the melting point lay within 160 to 162 °C.
Turning to `CC(=O)Nc1nc(-c2cc(C)cc(C)c2)c(-c2cc(C)nc(C)c2)s1` [Example Compound 40-3, N-[4-(3,5-dimethylphenyl)-5-(2,6-dimethyl-4-pyridyl)-1,3-thiazol-2-yl]acetamide], the melting point lay within 266 to 267 °C.
In turn, `CC(=O)Nc1cc(-c2sc(C(C)OC(=O)c3ccccc3)nc2-c2cccc(Cl)c2)ccn1` (stereo not shown) [Example 103-1, 1-[5-(2-acetylamino-4-pyridyl)-4-(3-chlorophenyl)-1,3-thiazol-2-yl]ethyl benzoate] registered a melting point of 152 to 154 °C.
The result for `Cc1cccc(-c2nc(N3CCN(C)CC3)sc2-c2ccnc(C)c2)c1` [Example Compound 14-14, 4-(3-methylphenyl)-2-(1-methylpiperazin-4-yl)-5-(2-methyl-4-pyridyl)-1,3-thiazole] reads 127 to 130 °C.
In the case of `Nc1nc(-c2cccc(Cl)c2)c(-c2ccnc(N3CCCCC3)c2)s1` [Example Compound 35-1, [4-(3-chlorophenyl)-5-(2-piperidino-4-pyridyl)-1,3-thiazol-2-yl]amine], the melting point fell in the range of 206 to 208 °C.
In turn, `CC(=O)Nc1nc(-c2cc(C)cc(C)c2)c(-c2ccnc(C)c2)s1` [Example Compound 40-1, N-[4-(3,5-dimethylphenyl)-5-(2-methyl-4-pyridyl)-1,3-thiazol-2-yl]acetamide] displayed a melting point of 236 to 237 °C.
Regarding `CCc1nc(-c2ccccc2)c(-c2ccnc(NC(C)=O)c2)s1` [Example Compound 82-1, N-[4-(2-ethyl-4-phenyl-1,3-thiazol-5-yl)-2-pyridyl]acetamide], the melting point fell in the range of 175 to 176 °C.
Take `CSc1ccc(-c2nc(-c3cccc(C)c3)c(-c3ccnc(N)c3)s2)cc1` [Example Compound 23-2, 4-[4-(3-methylphenyl)-2-[4-(methylthio)phenyl]-1,3-thiazol-5-yl]-2-pyridylamine]: the melting point fell in the range of 181 to 183 °C.
`CSc1ccc(-c2nc(-c3cccc(C)c3)c(-c3ccnc(NC(C)=O)c3)s2)cc1` [Example 82-12, N-[4-[4-(3-methylphenyl)-2-[4-(methylthio)phenyl]-1,3-thiazol-5-yl]-2-pyridyl]acetamide] showed a melting point of 181 to 182 °C.
`CC(=O)Nc1cc(-c2sc(C(C)O)nc2-c2cccc(C)c2)ccn1` (stereo not shown) [Example 111-1, N-[4-[2-(1-hydroxyethyl)-4-(3-methylphenyl)-1,3-thiazol-5-yl]-2-pyridyl]acetamide]: the melting point was 99 to 102 °C.
As to `Cc1cccc(-c2nc(NC(=O)Nc3ccccc3)sc2-c2ccnc(NC3CCCCC3)c2)c1` [Example Compound 53-2, N-[5-(2-cyclohexylamino-4-pyridyl)-4-(3-methylphenyl)-1,3-thiazol-2-yl]-N′-phenylurea], the melting point fell in the range of 198 to 199 °C.
With `CCC(=O)Nc1cc(-c2sc(C3CCN(C(C)=O)CC3)nc2-c2cccc(Cl)c2)ccn1` [Example 94, N-[4-[2-(1-acetylpiperidin-4-yl)-4-(3-chlorophenyl)-1,3-thiazol-5-yl]-2-pyridyl]propionamide], the melting point was 174 to 175 °C.
In turn, `CCCCCC(=O)Nc1cc(-c2sc(CC)nc2-c2cccc(Cl)c2)ccn1` [Example 88-2, N-[4-[4-(3-chlorophenyl)-2-ethyl-1,3-thiazol-5-yl]-2-pyridyl]hexanamide] showed a melting point of 114 to 115 °C.
Consider `CCc1nc(-c2ccccc2)c(-c2ccnc(N)c2)s1` [Example Compound 20-2, 4-(2-ethyl-4-phenyl-1,3-thiazol-5-yl)-2-pyridylamine], for which the melting point is 158 to 159 °C.
For the compound `Cc1cccc(-c2nc(NC(=O)c3cccnc3)sc2-c2ccnc(NC3CCCCC3)c2)c1` [Example Compound 42-3, N-[5-(2-cyclohexylamino-4-pyridyl)-4-(3-methylphenyl)-1,3-thiazol-2-yl]nicotinamide], the melting point lay in the range of 201 to 203 °C.
In turn, `CCc1nc(-c2cccc(C)c2)c(-c2ccnc(NCC3CCCC3)c2)s1` [Example Compound 32, N-(cyclopentylmethyl)-4-[2-ethyl-4-(3-methylphenyl)-1,3-thiazol-5-yl]-2-pyridylamine] had a melting point of 67 to 69 °C.
Regarding `CCc1nc(-c2cccc(Cl)c2)c(-c2ccnc(NC3CCCC3)c2)s1` [Example Compound 36-11, 4-[4-(3-chlorophenyl)-2-ethyl-1,3-thiazol-5-yl]-N-cyclopentyl-2-pyridylamine], the melting point fell in the range of 110 to 111 °C.
For `Cc1cccc(-c2nc(NC(=O)c3cccnc3)sc2-c2ccnc(NC3CCCC3)c2)c1` [Example Compound 42-4, N-[5-(2-cyclopentylamino-4-pyridyl)-4-(3-methylphenyl)-1,3-thiazol-2-yl]nicotinamide], the melting point is 215 to 216 °C.
`CSc1ccc(-c2nc(-c3cc(C)cc(C)c3)c(-c3cc(C)nc(C)c3)s2)cc1` [Example Compound 16-4, 4-(3,5-dimethylphenyl)-5-(2,6-dimethyl-4-pyridyl)-2-[4-(methylthio)phenyl]-1,3-thiazole] returned a melting point of 134 to 136 °C.
With `Cc1cc(C)cc(-c2nc(-c3ccc(S(C)(=O)=O)cc3)sc2-c2cc(C)nc(C)c2)c1` [Example Compound 58-3, 4-(3,5-dimethylphenyl)-5-(2,6-dimethyl-4-pyridyl)-2-(4-methylsulfonylphenyl)-1,3-thiazole], the melting point fell in the range of 217 to 220 °C.
The result for `Cc1cccc(-c2nc(-c3ccc(S(C)(=O)=O)cc3)sc2-c2ccnc(F)c2)c1` [Example Compound 58-4, 5-(2-fluoro-4-pyridyl)-4-(3-methylphenyl)-2-(4-methylsulfonylphenyl)-1,3-thiazole] reads 195 to 199 °C; that for `CCCc1cccc(-c2nc(CC)sc2-c2ccnc(NC(C)=O)c2)c1` [Example 82-9, N-[4-[2-ethyl-4-(3-propylphenyl)-1,3-thiazol-5-yl]-2-pyridyl]acetamide], 121 to 122 °C.
The value for `COc1ncccc1C(=O)Nc1nc(-c2cccc(C)c2)c(-c2ccnc(C)c2)s1` [Example Compound 49, 2-methoxy-N-[4-(3-methylphenyl)-5-(2-methyl-4-pyridyl)-1,3-thiazol-2-yl]nicotinamide] was 169 to 170 °C; that for `Cc1cc(C)cc(-c2nc(NC(=O)c3cccnc3)sc2-c2ccnc(C)c2)c1` [Example Compound 42-1, N-[4-(3,5-dimethylphenyl)-5-(2-methyl-4-pyridyl)-1,3-thiazol-2-yl]nicotinamide] was 203 to 206 °C; that for `CCC(=O)Nc1cc(-c2sc(CC)nc2-c2ccc(F)c(C)c2)ccn1` [Example 84-4, N-[4-[2-ethyl-4-(4-fluoro-3-methylphenyl)-1,3-thiazol-5-yl]-2-pyridyl]propionamide] was 105 to 107 °C.
The result for `CNc1nc(-c2cccc(C)c2)c(-c2ccnc(C)c2)s1` [Example Compound 9, N-methyl-[4-(3-methylphenyl)-5-(2-methyl-4-pyridyl)-1,3-thiazol-2-yl]amine] reads 164 to 165 °C; that for `Cc1cc(-c2sc(N)nc2-c2ccc(F)cc2)ccn1` [Example Compound 7-8, [4-(4-fluorophenyl)-5-(2-methyl-4-pyridyl)-1,3-thiazol-2-yl]amine], 233 to 234 °C; that for `CCOC(=O)Cc1nc(-c2cccc(C)c2)c(-c2ccnc(N)c2)s1` [Example Compound 18-5, Ethyl [5-(2-amino-4-pyridyl)-4-(3-methylphenyl)-1,3-thiazol-2-yl]acetate], 128 to 129 °C.
`CCOC(=O)c1nc(-c2cccc(C)c2)c(-c2ccnc(N)c2)s1` [Example Compound 18-6, Ethyl [5-(2-amino-4-pyridyl)-4-(3-methylphenyl)-1,3-thiazol-2-yl]carboxylate] returned a melting point of 147 to 148 °C.
The result for `Cc1cccc(-c2nc(C(C)OC(=O)c3ccccc3)sc2-c2ccnc(N)c2)c1` (stereo not shown) [Example 99-2, 1-[5-(2-amino-4-pyridyl)-4-(3-methylphenyl)-1,3thiazol-2-yl]ethyl benzoate] reads 89 to 91 °C.
`CCC(=O)Nc1cc(-c2sc(C)nc2-c2cccc(Cl)c2)ccn1` [Example Compound 30-7, N-[4-[4-(3-chlorophenyl)-2-methyl-1,3-thiazol-5-yl]-2-pyridyl]propionamide]: the melting point was 134 to 135 °C.
